Test results published in paper PMC11320734 (ACS Pharmacology & Translational Science, 2024).
Where two headings read alike, the source gives them in different places.

Tests used:
[1] = tested on: endocannabinoid membrane transporter (EMT); test: Endocannabinoid target profiling: cellular AEA uptake; assay type: cell-based
human wild type CB2R = human wild type CB2R (Homo sapiens, UniProt P34972); test: β-arrestin2 recruitment assay (Pathhunter); assay type: cell-based; set-up: host or cells: CHO cells (Pathhunter)
Sequence of human wild type CB2R (P34972 whole entry): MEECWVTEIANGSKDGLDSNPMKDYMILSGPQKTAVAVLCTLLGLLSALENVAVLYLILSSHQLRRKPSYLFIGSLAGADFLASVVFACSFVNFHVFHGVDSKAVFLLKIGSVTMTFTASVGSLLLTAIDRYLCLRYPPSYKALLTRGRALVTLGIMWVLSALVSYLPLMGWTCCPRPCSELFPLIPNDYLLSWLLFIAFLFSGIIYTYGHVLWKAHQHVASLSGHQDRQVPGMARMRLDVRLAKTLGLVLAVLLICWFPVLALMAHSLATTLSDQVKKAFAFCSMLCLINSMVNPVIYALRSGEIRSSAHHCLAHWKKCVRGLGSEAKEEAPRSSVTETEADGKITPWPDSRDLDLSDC

COX-2 = COX-2 (Homo sapiens, UniProt P35354); test: Endocannabinoid target profiling: COX-2; assay type: biochemical
Sequence of COX-2 (P35354 18-604): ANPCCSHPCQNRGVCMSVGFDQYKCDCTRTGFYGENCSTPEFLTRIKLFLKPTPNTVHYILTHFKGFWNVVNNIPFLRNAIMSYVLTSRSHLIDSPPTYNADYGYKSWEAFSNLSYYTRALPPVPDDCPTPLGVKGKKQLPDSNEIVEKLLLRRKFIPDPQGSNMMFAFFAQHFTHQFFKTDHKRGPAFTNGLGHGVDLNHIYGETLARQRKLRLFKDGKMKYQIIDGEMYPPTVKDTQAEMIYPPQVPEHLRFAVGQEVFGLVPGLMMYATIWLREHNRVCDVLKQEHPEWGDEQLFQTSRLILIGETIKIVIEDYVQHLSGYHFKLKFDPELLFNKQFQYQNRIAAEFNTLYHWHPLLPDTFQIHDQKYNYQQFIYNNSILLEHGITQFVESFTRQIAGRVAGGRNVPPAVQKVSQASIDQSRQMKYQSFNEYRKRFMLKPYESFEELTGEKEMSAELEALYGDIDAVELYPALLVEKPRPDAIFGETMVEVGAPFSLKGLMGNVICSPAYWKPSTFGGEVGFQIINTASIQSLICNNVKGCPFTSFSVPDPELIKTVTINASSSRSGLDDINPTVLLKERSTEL

[2] = Brain penetration study with/without P-gp inhibitor tariquidar; assay type: in vivo, male C57/BL6 mice
Method: (§1) To characterize the pharmacokinetic behavior of RNB-61, studies in rodents were conducted at the in vivo facility of F. Hoffmann-La Roche Ltd. (Basel, Switzerland). The plasma-concentration time profile was studied in rodents after single-dose RNB-61 administration by oral gavage (p.o. microsuspension excipients 7.5% gelatin/0.62% NaCl) and intravenous bolus injection (i.v. solution, excipients NMP:NaCl (30:70)). Three groups of male Wistar rats (n = 2 per group) were administered RNB-61 either at 1 mg kg^–1 i.v., 3 mg kg^–1 p.o., or 26 mg kg^–1 p.o. Plasma samples were drawn at 0.083, 0.25, 0.5, 1, 2, 4, 8, and 24 postdose in the i.v. group and at 0.25, 0.5, 0.75, 1.5, 3, 5, 8, and 24 h postdose in the p.o. groups. The samples were analyzed for RNB-61 concentration by LC/MS-MS. For the LC/MS-MS analysis, and the samples were prepared by adding 100 uL to 400 uL ACN with ISTD (100 ng/mL Bosantan in ACN/MeOH 1/1), stirring, and centrifuging (4000 rpm, 65’). 100 uL of the supernatant were pipetted and diluted with 400 μL H2O at pH 3. The analytes were separated on a Restek C18 column (5 μm, 1.0 × 3 mm). The mobile phase consisted of water containing 0.1% HCOOH as solvent A and ACN containing 0.1% HCOOH as solvent B. The gradient curve starting with 5% B was changed to 90% B between 0.4 and 0.6 min and further increased to 95% B between 0.6 and 1.2 min. This was maintained until 1.4 min and then reduced and kept at 5% B between 1.45 and 2.0 min. The mass spectrometer was operated in the positive mode. All LC-MS/MS was done using the Agilent RapidFire Analyzer software (version 4.3). The pharmacokinetic parameters were estimated by noncompartmental analysis in the Certara WinNonlin software (version 5.3). A similar study design was run in mice with three groups receiving 2 mg kg^–1 i.v., 4 mg kg^–1 p.o., or 26 mg kg^–1 p.o., and plasma sampling occurring in a composite profile (n = 2 for each time point) up to 7 or 24 h postdose. Male C57/BL6 mice (n = 5 per group) were used to study the influence of P-gp efflux on brain penetration. Two groups of mice were administered RNB-61 by i.v. bolus injection at 1 mg kg^–1 (2 groups). In order to block P-gp activity, an i.v. bolus of 5 mg kg^–1 tariquidar[46] was injected into one group 30 min prior to RNB-61. Plasma was collected at 0.083, 0.25, 0.5, 2, 4, and 7 h postdose in a composite profile. Brain, CSF, and vitreous body were collected at terminal time points 0.5, 2, 4, and 7 h postdose.

P-gp = test: as above; assay type: in vivo, male C57/BL6 mice; details: male, C57/BL6, mouse, with tariquidar 5 mg kg^–1 i.v. bolus, 30 min prior to RNB-61
Method: as §1

PPARg = PPARg (Homo sapiens, UniProt P37231); test: Endocannabinoid target profiling: PPARg; details: Table S1; read-out: PPARg (Ki, IC50)
Sequence of PPARg (P37231 whole entry, species assumed): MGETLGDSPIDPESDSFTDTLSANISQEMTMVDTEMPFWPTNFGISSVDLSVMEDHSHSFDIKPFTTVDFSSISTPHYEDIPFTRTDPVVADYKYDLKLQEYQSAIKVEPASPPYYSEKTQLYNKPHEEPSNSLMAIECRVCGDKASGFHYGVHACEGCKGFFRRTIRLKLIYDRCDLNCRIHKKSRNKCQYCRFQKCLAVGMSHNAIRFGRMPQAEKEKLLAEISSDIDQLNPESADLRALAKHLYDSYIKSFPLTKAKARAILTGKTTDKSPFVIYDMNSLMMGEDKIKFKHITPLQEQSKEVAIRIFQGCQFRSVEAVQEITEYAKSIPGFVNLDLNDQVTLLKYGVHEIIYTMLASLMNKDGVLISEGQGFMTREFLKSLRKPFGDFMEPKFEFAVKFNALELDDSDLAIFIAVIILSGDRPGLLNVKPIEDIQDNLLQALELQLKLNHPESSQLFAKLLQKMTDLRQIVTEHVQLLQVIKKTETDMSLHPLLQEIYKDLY

hCB1R = hCB1R (Homo sapiens, UniProt P21554); test: Competition binding assay with [3H]-CP55940, HEK cell membranes; details: read-out: Ki hCB1R (binding assay); [3H]-CP55940 competition; mean ± SD
Sequence of hCB1R (P21554 whole entry): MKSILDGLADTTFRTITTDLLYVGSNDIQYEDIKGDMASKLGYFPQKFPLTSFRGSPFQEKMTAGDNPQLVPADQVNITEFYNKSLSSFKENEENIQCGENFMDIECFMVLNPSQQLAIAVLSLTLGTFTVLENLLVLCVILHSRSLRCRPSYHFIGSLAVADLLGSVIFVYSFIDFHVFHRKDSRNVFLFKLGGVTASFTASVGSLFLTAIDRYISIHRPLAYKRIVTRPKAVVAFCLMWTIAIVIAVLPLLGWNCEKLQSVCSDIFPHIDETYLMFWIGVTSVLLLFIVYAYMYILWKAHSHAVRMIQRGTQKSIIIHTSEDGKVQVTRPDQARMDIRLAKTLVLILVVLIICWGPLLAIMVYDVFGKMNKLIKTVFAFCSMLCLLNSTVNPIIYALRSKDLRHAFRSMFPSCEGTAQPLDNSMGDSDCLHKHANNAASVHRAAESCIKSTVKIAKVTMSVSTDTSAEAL
Method: Competition and saturation binding assays were performed using the radiolabeled CB1R/CB2R agonist [^3H]-CP55940 (PerkinElmer).
Binding reactions were terminated by vacuum filtration onto 0.5% polyethylenimine presoaked GF/B filter plates (Packard) using a Filtermate cell harvester followed by 6 brief washes with 0.3 mL/well of ice-cold wash buffer. Wash buffer comprising 50 mmol L^–1 Tris- HCl, 5 mmol L^–1 MgCl2, 2.5 mmol L^–1 EDTA, and 0.5% fatty acid-free BSA, pH 7.4. Plates were dried at 50 °C for 1 h and liquid scintillation counting was used to determine levels of bound radiolabel. IC50 values and Hill slopes were determined with a 4-parameter logistic model using ActivityBase (ID Business Solution, Guilford, UK) and pKi values were determined using the Cheng–Prusoff equation as shown below: [drawing 1] where S indicates the concentration of the substrate and Km depicts the affinity constant of the substrate.

MAGL = MAGL (Homo sapiens, UniProt Q99685); test: Endocannabinoid target profiling: MAGL; assay type: biochemical
Sequence of MAGL (Q99685 whole entry, species assumed): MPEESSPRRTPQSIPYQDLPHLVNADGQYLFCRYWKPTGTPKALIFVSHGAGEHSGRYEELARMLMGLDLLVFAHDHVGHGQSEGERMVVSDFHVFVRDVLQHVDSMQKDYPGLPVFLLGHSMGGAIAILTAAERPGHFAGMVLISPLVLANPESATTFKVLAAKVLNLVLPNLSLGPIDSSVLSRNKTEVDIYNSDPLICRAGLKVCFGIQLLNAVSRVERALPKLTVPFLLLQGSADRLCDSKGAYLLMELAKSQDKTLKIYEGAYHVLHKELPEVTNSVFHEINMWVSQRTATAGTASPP

[3] = RNB-61 1 mg kg^–1 i.v. + tariquidar 5 mg kg^–1 i.v.
[4] = RNB-61 1 mg kg^–1 i.v., no tariquidar

Cn1c(C(C)(C)C)cc(=NC(=O)c2cc(C(F)(F)F)ccc2OCC(C)(C)O)n1CC1CCC1 [RNB-61]
IC50 ([1]; Table S1, read-out: EMT (Ki, IC50)): > 10 µM | inhibition of cellular AEA uptake (EMT) ([1]; screening concentration 10 μM): did not inhibit | EC50 (human wild type CB2R; Figure 2, normalized to 1 μM CP55940): 0.0133 ± 0.0019 µM | Emax (human wild type CB2R; percentage normalized to 1 μM CP55940, read-out: Emax β-arrestin2 recruitment): 80% | Emax (human wild type CB2R; relative to CP55,940, text, read-out: Emax of total β-arrestin2 recruitment): ~80% | IC50 (COX-2; Table S1, read-out: COX-2 (Ki, IC50)): > 10 µM | inhibition of EC oxygenation (COX-2) (COX-2; screening concentration 10 μM): did not inhibit | AUClast lower in the brain compared to plasma ([2]; 1 mg kg^–1 i.v., no tariquidar): > 10 fold | peak brain concentration lower compared to plasma level ([2]; 1 mg kg^–1 i.v., no tariquidar): > 20 fold | brain AUCinf [2, 3]: 4386 ng·h/mL | brain AUClast [2, 3]: 1877 ng·h/mL | brain Cmax [2, 3]: 342 ng/mL | brain AUCinf [2, 4]: 375 ng·h/mL | brain AUClast [2, 4]: 215 ng·h/mL | brain Cmax [2, 4]: 41.3 ng/mL | half-life ([2]; male, C57/BL6, mouse, brain, iv, RNB-61 1 mg kg^–1 i.v., no tariquidar, read-out: brain T1/2 (converted)): 5.98 h | Tmax ([2]; male, C57/BL6, mouse, brain, iv, RNB-61 1 mg kg^–1 i.v., no tariquidar, read-out: brain Tmax): 0.58 h | Kp ([2]; male, C57/BL6, mouse, iv, ratio of AUClast in brain and plasma, 1 mg kg^–1 i.v., no tariquidar, read-out: brain-plasma partition coefficient Kp): 0.088 | Cmax ([2]; male, C57/BL6, mouse, plasma, iv, RNB-61 1 mg kg^–1 i.v., no tariquidar): 972 ng/mL | AUC(0-inf) ([2]; male, C57/BL6, mouse, plasma, iv, RNB-61 1 mg kg^–1 i.v., no tariquidar, read-out: plasma AUCinf): 3320 ng·h/mL | AUC(0-t) ([2]; male, C57/BL6, mouse, plasma, iv, RNB-61 1 mg kg^–1 i.v., no tariquidar, read-out: plasma AUClast): 2430 ng·h/mL | clearance ([2]; male, C57/BL6, mouse, plasma, iv, RNB-61 1 mg kg^–1 i.v., no tariquidar, read-out: plasma CL (converted)): 5.02 mL/min/kg | half-life ([2]; male, C57/BL6, mouse, plasma, iv, RNB-61 1 mg kg^–1 i.v., no tariquidar, read-out: plasma T1/2 (converted)): 4 h | Tmax ([2]; male, C57/BL6, mouse, plasma, iv, RNB-61 1 mg kg^–1 i.v., no tariquidar, read-out: plasma Tmax): 0.25 h | brain Cmax and AUClast higher with tariquidar than RNB-61 alone ([2]; tariquidar 5 mg kg^–1): ~10 fold | half-life (P-gp; brain, iv, RNB-61 1 mg kg^–1 i.v. + tariquidar 5 mg kg^–1 i.v., read-out: brain T1/2 (converted)): 8.42 h | Tmax (P-gp; brain, iv, RNB-61 1 mg kg^–1 i.v. + tariquidar 5 mg kg^–1 i.v., read-out: brain Tmax): 0.53 h | Kp (P-gp; intravenous, ratio of AUClast in brain and plasma, + tariquidar 5 mg kg^–1, read-out: brain-plasma partition coefficient Kp): 0.747 | Cmax (P-gp; plasma, iv, RNB-61 1 mg kg^–1 i.v. + tariquidar 5 mg kg^–1 i.v.): 737 ng/mL | AUC(0-inf) (P-gp; plasma, iv, RNB-61 1 mg kg^–1 i.v. + tariquidar 5 mg kg^–1 i.v., read-out: plasma AUCinf): 3560 ng·h/mL | AUC(0-t) (P-gp; plasma, iv, RNB-61 1 mg kg^–1 i.v. + tariquidar 5 mg kg^–1 i.v., read-out: plasma AUClast): 2510 ng·h/mL | clearance (P-gp; plasma, iv, RNB-61 1 mg kg^–1 i.v. + tariquidar 5 mg kg^–1 i.v., read-out: plasma CL (converted)): 4.68 mL/min/kg | half-life (P-gp; plasma, iv, RNB-61 1 mg kg^–1 i.v. + tariquidar 5 mg kg^–1 i.v., read-out: plasma T1/2 (converted)): 3.68 h | Tmax (P-gp; plasma, iv, RNB-61 1 mg kg^–1 i.v. + tariquidar 5 mg kg^–1 i.v., read-out: plasma Tmax): 0.083 h | IC50 (PPARg): > 10 µM | Ki (hCB1R): 3.88 ± 0.0734 µM | IC50 (MAGL; Table S1, read-out: MAGL (Ki, IC50)): > 10 µM | inhibition of EC hydrolysis by MAGL (MAGL; screening concentration 10 μM): did not inhibit
